Measured values reported in ChEMBL document CHEMBL2439959, “Structural study of the location of the phenyl tail of benzene sulfonamides and the effect on human carbonic anhydrase inhibition” (Bioorg Med Chem, 2013).

What was measured:
[1] = biological target: Carbonic anhydrase 5A, mitochondrial (Homo sapiens, UniProt P35218)
[2] = biological target: Carbonic anhydrase 5B, mitochondrial (Homo sapiens, UniProt Q9Y2D0)
Chain of Carbonic anhydrase 5B, mitochondrial (Q9Y2D0 whole entry): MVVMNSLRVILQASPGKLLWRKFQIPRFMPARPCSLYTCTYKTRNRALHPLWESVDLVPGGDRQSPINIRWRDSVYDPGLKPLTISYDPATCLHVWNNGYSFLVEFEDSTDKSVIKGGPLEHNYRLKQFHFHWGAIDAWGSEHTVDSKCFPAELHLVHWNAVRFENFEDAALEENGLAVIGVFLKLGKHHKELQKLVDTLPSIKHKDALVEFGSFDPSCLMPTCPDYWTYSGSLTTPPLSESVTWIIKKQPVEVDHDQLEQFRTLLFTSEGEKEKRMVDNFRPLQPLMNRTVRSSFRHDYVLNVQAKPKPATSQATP

Chain of Carbonic anhydrase 5A, mitochondrial (P35218 whole entry): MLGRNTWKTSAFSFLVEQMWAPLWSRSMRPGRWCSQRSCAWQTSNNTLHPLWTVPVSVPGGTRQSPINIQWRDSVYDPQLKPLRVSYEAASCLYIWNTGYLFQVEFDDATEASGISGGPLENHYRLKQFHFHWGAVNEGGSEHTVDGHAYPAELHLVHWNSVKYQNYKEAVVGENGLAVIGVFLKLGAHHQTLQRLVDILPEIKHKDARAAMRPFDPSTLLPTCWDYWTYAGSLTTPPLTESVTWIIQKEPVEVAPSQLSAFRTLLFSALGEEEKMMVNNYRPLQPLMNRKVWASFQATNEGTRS

SMILES	Ki [1] [µM]	Ki [2] [µM]
NS(=O)(=O)c1ccc(Nc2nc(Cl)nc(NCCO)n2)cc1	0.451	0.34
NS(=O)(=O)c1ccc(NC(=O)Cc2ccccc2)cc1	0.013	0.01
